Experiment [1] can be described thus: Luminescence-based dose response cell-based high throughput screening assay for cytotoxic compounds using the IEC-6 intestinal epithelial cell line. [Related pubchem assays: 1858 (Summary AID.), 1825 (Counterscreen.), 1907 (Confirmation screen.)]. It is filed as functional. A general note: A counterscreen serves to expose hits that act by an unwanted route or on another target.

For experiment [2], the target named is T1, Short transient receptor potential channel 4 (Mus musculus, UniProt Q9QUQ5).
T1 sequence (Q9QUQ5 whole entry): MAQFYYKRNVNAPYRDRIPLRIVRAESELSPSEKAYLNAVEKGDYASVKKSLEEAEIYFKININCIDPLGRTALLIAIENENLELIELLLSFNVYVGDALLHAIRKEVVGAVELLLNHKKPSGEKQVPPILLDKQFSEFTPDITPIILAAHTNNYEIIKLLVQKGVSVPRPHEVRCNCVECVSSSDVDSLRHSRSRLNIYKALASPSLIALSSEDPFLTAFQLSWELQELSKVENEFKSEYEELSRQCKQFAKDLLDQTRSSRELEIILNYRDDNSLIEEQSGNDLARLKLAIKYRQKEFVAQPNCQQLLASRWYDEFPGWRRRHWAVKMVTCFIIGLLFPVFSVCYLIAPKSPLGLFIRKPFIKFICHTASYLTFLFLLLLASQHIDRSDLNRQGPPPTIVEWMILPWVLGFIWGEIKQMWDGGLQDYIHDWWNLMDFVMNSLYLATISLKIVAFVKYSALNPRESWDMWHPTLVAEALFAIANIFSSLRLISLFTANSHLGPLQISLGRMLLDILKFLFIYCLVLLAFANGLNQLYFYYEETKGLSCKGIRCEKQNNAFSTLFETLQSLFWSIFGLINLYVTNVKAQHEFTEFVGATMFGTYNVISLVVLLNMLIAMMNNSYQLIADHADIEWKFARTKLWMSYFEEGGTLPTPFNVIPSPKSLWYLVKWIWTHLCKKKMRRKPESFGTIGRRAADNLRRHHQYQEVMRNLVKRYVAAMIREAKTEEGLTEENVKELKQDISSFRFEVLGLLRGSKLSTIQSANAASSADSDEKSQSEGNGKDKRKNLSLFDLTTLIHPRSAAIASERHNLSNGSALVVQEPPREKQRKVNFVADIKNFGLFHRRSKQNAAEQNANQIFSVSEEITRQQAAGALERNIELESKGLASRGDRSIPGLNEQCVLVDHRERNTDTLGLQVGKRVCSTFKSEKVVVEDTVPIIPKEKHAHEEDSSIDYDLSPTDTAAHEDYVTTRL
The experiment can be described thus: mouse TRPC4 channel activators, dose response, cell-based, HEK293 TRPC4/mu-opioid, Fluo-4 calcium (AID 434937). In kind it is functional.

Experiment [3] can be described thus: inhibitors of intracellular T. cruzi replication, confirmation, NIH3T3 host cells, beta-gal luminescence (AID 2044).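 Also: intracellular parasites grown in NIH/3T3 mouse fibroblasts as host cells; luminescent beta-galactosidase reporter signal from transgenic T. cruzi replicating inside host cells; inhibitors lower the luminescence signal.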 In kind it is functional, cell-based.
Experiment [4] in a line: cytotoxicity toward NIH3T3 fibroblasts, dose response, counter-screen, cell-based, ATP luminescence, mouse fibroblasts (AID 2010).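 Also: cells exposed to compound for about 90 hours before reading.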 In kind it is functional.
The target in experiment [5] is Neuropeptide Y receptor type 1 (Homo sapiens, UniProt P25929). The experiment is described as follows: NPY-Y1 receptor antagonist potency, dose response, cell-based (AID 1277). In kind it is functional.
Neuropeptide Y receptor type 1, sequence (P25929 whole entry): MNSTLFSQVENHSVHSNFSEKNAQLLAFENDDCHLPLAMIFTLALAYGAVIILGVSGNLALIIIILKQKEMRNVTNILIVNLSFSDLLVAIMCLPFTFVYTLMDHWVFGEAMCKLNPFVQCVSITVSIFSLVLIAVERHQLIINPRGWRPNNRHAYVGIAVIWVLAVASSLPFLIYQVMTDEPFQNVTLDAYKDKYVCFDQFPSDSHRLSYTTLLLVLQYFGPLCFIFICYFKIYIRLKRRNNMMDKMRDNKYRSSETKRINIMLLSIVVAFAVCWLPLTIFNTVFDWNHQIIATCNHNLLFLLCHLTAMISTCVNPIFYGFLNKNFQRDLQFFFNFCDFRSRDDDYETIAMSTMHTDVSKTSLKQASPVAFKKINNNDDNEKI
The nature of experiment [6]: inhibitors of PGC1a acetylation in cells, dose response, cell-based, cherry-picked samples (AID 720514).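 Also: potency may reflect raised or lowered acetylation signal.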 It is filed as functional.
Experiment [7] addresses T2, Sphingosine 1-phosphate receptor 4 (Homo sapiens, UniProt O95977).
T2 sequence (O95977 whole entry): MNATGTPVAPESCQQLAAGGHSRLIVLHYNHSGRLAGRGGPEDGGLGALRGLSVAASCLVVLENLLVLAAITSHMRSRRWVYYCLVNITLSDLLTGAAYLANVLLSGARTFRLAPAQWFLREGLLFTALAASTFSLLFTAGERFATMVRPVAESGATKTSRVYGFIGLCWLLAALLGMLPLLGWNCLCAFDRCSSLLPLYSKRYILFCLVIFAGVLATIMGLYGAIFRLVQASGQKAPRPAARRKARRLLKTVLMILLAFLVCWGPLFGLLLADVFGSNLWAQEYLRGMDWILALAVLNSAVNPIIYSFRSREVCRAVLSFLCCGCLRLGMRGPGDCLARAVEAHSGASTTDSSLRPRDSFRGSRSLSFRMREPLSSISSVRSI
The experiment is described as follows: Fluorescence dose response cell-based high throughput screening assay for antagonists of the Sphingosine 1-Phosphate Receptor 4 (S1P4). [Related pubchem assays: 1524 (Confirmation in triplicates.), 1510 (Primary screen.)]. It is filed as functional.

Experiment [8] deals with Sphingosine 1-phosphate receptor 1 (Homo sapiens, UniProt P21453). It is filed as functional.
Sphingosine 1-phosphate receptor 1, sequence (P21453 whole entry): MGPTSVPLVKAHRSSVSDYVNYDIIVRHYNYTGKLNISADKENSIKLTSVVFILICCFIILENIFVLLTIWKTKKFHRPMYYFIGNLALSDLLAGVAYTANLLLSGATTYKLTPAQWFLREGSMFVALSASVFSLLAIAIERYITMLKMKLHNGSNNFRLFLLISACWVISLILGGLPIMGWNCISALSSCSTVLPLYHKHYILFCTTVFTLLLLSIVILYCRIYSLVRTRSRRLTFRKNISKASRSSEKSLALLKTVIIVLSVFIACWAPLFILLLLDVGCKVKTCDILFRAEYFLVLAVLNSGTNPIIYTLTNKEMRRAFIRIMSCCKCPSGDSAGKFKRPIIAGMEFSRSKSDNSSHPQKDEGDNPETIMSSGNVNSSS
Experiment [9] has as its target T3, Microphthalmia-associated transcription factor (Homo sapiens, UniProt O75030).
T3 sequence (O75030 whole entry): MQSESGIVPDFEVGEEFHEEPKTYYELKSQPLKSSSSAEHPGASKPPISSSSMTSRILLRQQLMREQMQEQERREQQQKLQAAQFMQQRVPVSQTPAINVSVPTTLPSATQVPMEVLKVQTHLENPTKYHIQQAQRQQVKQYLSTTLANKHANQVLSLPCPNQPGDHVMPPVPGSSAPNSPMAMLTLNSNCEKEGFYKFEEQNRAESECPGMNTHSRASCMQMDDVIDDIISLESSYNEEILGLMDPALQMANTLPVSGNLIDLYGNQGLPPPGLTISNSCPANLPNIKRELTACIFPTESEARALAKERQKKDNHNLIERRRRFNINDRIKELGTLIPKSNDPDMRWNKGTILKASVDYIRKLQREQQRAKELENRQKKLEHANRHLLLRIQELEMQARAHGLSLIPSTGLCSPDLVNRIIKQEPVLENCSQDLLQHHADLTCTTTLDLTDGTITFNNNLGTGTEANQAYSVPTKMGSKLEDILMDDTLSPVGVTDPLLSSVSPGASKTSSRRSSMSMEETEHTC
The experiment is described as follows: TRPM1 promoter luciferase signal decrease, dose response, MITF inhibitor project, cell-based, SK-MEL-5, cherry-picked, set 3 (AID 493073).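 Also: SK-MEL-5 melanoma cells with luciferase driven by the MITF target TRPM1 promoter.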 It is filed as functional.

Experiment [10] can be described thus: Fluorescence-based cell-based high throughput dose response assay for inhibitors of the interaction of nucleotide-binding oligomerization domain containing 2 (NOD2) and the receptor-interacting serine-threonine kinase 2 (RIPK2). The note with it: Homo sapiens. It is filed as functional.
Experiment [11] can be described thus: Luminescence Cell-Based Dose Response to Identify Activators of 5'UTR Stem-Loop Driven Prion Protein mRNA Translation in H4-C Neuroglioblastoma Cells. [Related pubchem assays: 1829 (Project Summary), 1814 (Primary HTS)]. In kind it is functional.
Experiment [12] is described as follows: Luminescence Cell-Based Dose Response HTS to Identify Activators of Luciferase Translation or Activity in H4 […] Cells. [Related pubchem assays: 1829 (Project Summary), 1814 (Primary HTS)]. In kind it is functional.
The nature of experiment [13]: Luminescence Cell-Based Dose Confirmation to Identify Activators of 5'UTR Stem-Loop Driven Alpha-Synuclein mRNA Translation in H4 Neuroglioblastoma Cells. [Related pubchem assays: 1829 (Project Summary), 1814 (Primary HTS)]. It is filed as functional.
Experiment [14] in a line: Luminescence Cell-Based Dose Response to Identify Activators of Luciferase Translation or Activity in H4-C Neuroglioblastoma Cells. [Related pubchem assays: 1829 (Project Summary), 1814 (Primary HTS)]. In kind it is functional.
Experiment [15] can be described thus: HEp-2 cell cytotoxicity, dose response, cytotoxicity control for RSV inhibitor project, HTS (AID 2410). The settings on record: human respiratory syncytial virus. In kind it is functional.
The next experiment has as its system H4. The experiment can be described thus: Luminescence Cell-Based Dose Response HTS to Identify Activators of 5'UTR Stem-Loop Driven Prion Protein mRNA Translation in H4 Neuroglioblastoma Cells. [Related pubchem assays: 1829 (Project Summary), 1814 (Primary HTS)]. The note with it: Homo sapiens. In kind it is functional.
A further experiment deals with Large T antigen (Simian virus 40, UniProt P03070). In kind it is functional, Betapolyomavirus macacae.
Large T antigen, sequence (P03070 whole entry): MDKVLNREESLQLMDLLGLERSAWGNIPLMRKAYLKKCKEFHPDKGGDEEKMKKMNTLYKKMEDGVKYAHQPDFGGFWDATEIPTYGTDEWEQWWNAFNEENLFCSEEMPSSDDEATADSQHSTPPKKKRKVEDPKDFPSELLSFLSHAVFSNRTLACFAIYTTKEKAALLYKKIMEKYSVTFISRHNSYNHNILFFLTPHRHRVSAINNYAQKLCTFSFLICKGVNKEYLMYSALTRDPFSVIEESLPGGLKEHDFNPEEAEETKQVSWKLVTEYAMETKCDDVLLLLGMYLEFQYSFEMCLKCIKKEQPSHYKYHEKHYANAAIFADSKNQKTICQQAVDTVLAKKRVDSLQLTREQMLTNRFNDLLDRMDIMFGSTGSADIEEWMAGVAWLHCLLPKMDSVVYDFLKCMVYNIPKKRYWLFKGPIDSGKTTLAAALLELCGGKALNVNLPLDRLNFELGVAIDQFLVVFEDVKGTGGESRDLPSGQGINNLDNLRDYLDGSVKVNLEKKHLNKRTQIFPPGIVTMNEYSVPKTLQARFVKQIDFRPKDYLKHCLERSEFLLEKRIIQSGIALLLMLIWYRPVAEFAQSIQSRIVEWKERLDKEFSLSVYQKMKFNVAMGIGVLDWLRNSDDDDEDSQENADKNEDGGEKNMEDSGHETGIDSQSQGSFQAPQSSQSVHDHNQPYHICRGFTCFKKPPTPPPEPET
In experiment [16] the target is Induced myeloid leukemia cell differentiation protein Mcl-1 (Homo sapiens, UniProt Q07820). In kind it is functional.
Induced myeloid leukemia cell differentiation protein Mcl-1, sequence (Q07820 whole entry): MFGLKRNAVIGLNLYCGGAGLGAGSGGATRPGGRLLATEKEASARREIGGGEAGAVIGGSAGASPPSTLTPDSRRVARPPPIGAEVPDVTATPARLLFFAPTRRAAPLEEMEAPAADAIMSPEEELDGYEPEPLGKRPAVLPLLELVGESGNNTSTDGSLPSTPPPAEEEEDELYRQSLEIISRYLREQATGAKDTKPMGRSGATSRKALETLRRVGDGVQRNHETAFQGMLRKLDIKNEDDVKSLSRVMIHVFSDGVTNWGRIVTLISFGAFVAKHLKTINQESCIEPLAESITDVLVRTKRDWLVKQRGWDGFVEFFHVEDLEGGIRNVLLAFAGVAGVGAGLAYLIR
Experiment [17] can be described thus: Luminescence Cell-Based Dose Confirmation HTS to Identify Activators of 5'UTR Stem-Loop Driven Alpha-Synuclein mRNA Translation in H4 Neuroglioblastoma Cells. [Related pubchem assays: 1829 (Project Summary), 1814 (Primary HTS)]. In kind it is functional.

For orientation: IC50 means the concentration at which inhibition is half-maximal. The term EC50 denotes the concentration that produces a half-maximal response. A word on the AC50: it is the midpoint of the concentration-response curve, whichever way the signal moves. The CC50 is the concentration that lowers cell viability or growth by half.

Active and inactive are the calls of the source.

In the case of `N=C(N)Nc1ccc(NC(=N)N)cc1`, in experiment [1], the IC50 was 1.8 µM (active).
Take `Cc1ccc2oc(=O)c3cnn(CC(=O)NC4CCN(Cc5ccccc5)CC4)c3c2c1`: the EC50 is 0.079 µM (active) in the experiment “cells”, 2.11 µM (active) in experiment [2], < 0.1 µM (active) in [3] and > 60 µM (not active) in experiment [4].
Turning to `CCc1cc(-c2n[nH]cc2-c2ccc3c(c2)OCO3)c(O)cc1O`, the IC50 in experiment [5] is reported as 13.3 µM (not active).
As to `O=C(Cn1ncc(Cl)c(Cl)c1=O)c1ccc(Cl)cc1`, the AC50 in [6] is 3.39 µM (active); in experiment [9] it was 8.81 µM (active). The results for the IC50 in experiment [7], in [8] and in [10] were 2.15 µM (active), 7.28 µM (active) and 1.84 µM (active), respectively. The EC50 in experiment [3] is 2.11 µM (active); in [4], 2.41 µM (active).
On to `O=C(Nc1nc(-c2ccc3c(c2)OCCO3)cs1)C1CCCC1`, for which the EC50 was 0.365 µM (active) in [11], < 0.1 µM (inconclusive) in experiment [12], 0.247 µM (active) in experiment [13] and 0.27 µM (active) in experiment [14]. In experiment [15], the CC50 was 21 µM (active).
`Oc1ccc(-c2csc(Nc3ncccn3)n2)cc1O`: the EC50 was 0.125 µM (active) in the experiment on H4; 0.815 µM (active) in [11]; 3.45 µM (active) in experiment [12]; 0.67 µM (active) in [13]; 0.1 µM (active) in experiment [17]; > 12 µM (not active) in experiment [14]. Besides, the IC50 at Large T antigen is 14 µM (active); in experiment [16] it was 3.52 µM (active).

The values are drawn from ChEMBL document CHEMBL1201862, “PubChem BioAssay data set” (2004).
